According to patent US20170001988A1, “PIPERIDINE AND PIPERAZINE DERIVATIVES AND THEIR USE IN TREATING VIRAL INFECTIONS AND CANCER” (THE UNITED STATES OF AMERICA, AS REPRESENTED BY THE …, priority 2013, published 2017):
Read-outs that look alike come from different tables or passages of the source.

Key:
Huh7.5.1 cells = assay: in vitro
Excerpt: EC50 was generated using the HCV-Luc infection assay and IC50 using the ATPLite assay.
EC50 was generated using the HCV-Luc infection assay and TC50 using the ATPLite assay.
The cytotoxicity of the compounds was further evaluated in HepG2 cells and primary human hepatocytes.

HCV-Luc = HCV-Luc infection assay; assay type: cell-based; details: for EC50: Hepatitis C virus

Compound	CC50 (Huh7.5.1 cells; human) [µM]	EC50 (HCV-Luc; Table 3, read-out: EC50) [nM]	Selective Index (HCV-Luc; Table 3)	CC50 (Huh7.5.1 cells; Table 5) [µM]	EC50 (HCV-Luc; Table 5, read-out: EC50) [nM]	Selective Index (HCV-Luc; Table 5)	EC50 (HCV-Luc) [nM]
FC(F)(F)CN1CCN([C@@H](c2ccccc2)c2ccc(Cl)cc2)CC1 [CF3CH2 (S), (S)-1-((4-Chlorophenyl)(phenyl)methyl)-4-(2,2,2-trifluoroethyl)piperazine]	> 100	> 31600					
CC(C)CN1CCN([C@@H](c2ccccc2)c2ccc(Cl)cc2)CC1 [2-methyl-1-propyl (S), (S)-1-((4-Chlorophenyl)(phenyl)methyl)-4-isobutylpiperazine]	51.7 ± 1.4	102 ± 18	507				
CC(=O)NCCOCCOCCOCCOCCN1CCN(C(c2ccccc2)c2ccc(Cl)cc2)CC1 (racemic) [(CH2CH2O)4CH2CH2NHC(═O)Me (R,S), N-(14-(4-((4-Chlorophenyl)(phenyl)methyl)piperazin-1-yl)-3,6,9,12-tetraoxatetradecyl)acetamide]	> 100	170 ± 22	>588				
CN1CCCN(C(c2ccccc2)c2ccc(Cl)cc2)CC1 (stereo not drawn)				12.8 ± 0.1	57 ± 8	225	
CC(=O)N1CCN([C@@H](c2ccccc2)c2ccc(Cl)cc2)CC1 [Acetyl (S), (S)-1-(4-((4-Chlorophenyl)(phenyl)methyl)piperazin-1-yl)ethanone]	91.3 ± 1	22000 ± 3200	4				
CN1CCC(N(c2ccccc2)c2ccc(OC(C)(C)C)cc2)CC1	78.7 ± 0.6				354 ± 97	222	
O=C1c2ccccc2C(=O)N1CCOCCN1CCN(C(c2ccccc2)c2ccc(Cl)cc2)CC1 (stereo not drawn) [2-(2-(2-(4-((4-Chlorophenyl)(phenyl)methyl)piperazin-1-yl)ethoxy)ethyl)isoindoline-1,3-dione]	> 100	1540 ± 570	>65				
COc1ccc(CN2CCN([C@@H](c3ccccc3)c3ccc(Cl)cc3)CC2)c(OC)c1 [2-4-dimethoxybenzyl (S), (S)-1-((4-Chlorophenyl)(phenyl)methyl)-4-(2,4-dimethoxybenzyl)piperazine]	38.4 ± 4.2	456 ± 235	84				
Clc1ccc([C@@H](c2ccccc2)N2CCNCC2)cc1 [H (R), (R)-1-((4-Chlorophenyl)(phenyl)methyl)piperazine]	12.5 ± 1.4	32 ± 22	391				
CCN1CCN(C2c3ccccc3-c3ccc(Br)cc32)CC1 (stereo not drawn)	53.1 ± 1.3				1680 ± 450	32	
c1ccc(C(c2ccccc2)c2ccncc2)cc1	65.1 ± 2.1				> 31500	<2	
CC(C)(C)OC(=O)NCCOCCOCCOCCOCCN1CCN(C(c2ccccc2)c2ccc(Cl)cc2)CC1 (racemic) [(CH2CH2O)4(CH2)2NHC(═O)Ot-Bu (R,S), tert-Butyl (14-(4-((4-chlorophenyl)(phenyl)methyl)piperazin-1-yl)-3,6,9,12-tetraoxatetradecyl)carbamate]	19 ± 4	199 ± 30	95				
c1ccc(C(c2ccccc2)C2CCNCC2)cc1				32.5 ± 0.1	72 ± 2	451	
Clc1ccc([C@H](c2ccccc2)N2CCNCC2)cc1 [H (S), (S)-1-((4-Chlorophenyl)(phenyl)methyl)piperazine]	9.31 ± 0.04	34 ± 12	0274				
CC(C)N1CCN([C@@H](c2ccccc2)c2ccc(Cl)cc2)CC1 [i-Pr (S), (S)-1-((4-Chlorophenyl)(phenyl)methyl)-4-isopropylpiperazine]	32.4 ± 3.8	13 ± 4	2492				
OCCOCCN1CCN(C(c2ccc(Cl)cc2)c2ccc(Cl)cc2)CC1 [Cl, Cl, CH2CH2OCH2CH2OH, 2-(2-(4-(bis(4-Chlorophenyl)methyl)piperazin-1-yl)ethoxy)ethanol]							5.5 ± 2.2
[2H]C([2H])([2H])CN1CCN([C@H](c2ccccc2)c2ccc(Cl)cc2)CC1 [CD3CH2 (R), (R)-1-((4-Chlorophenyl)(phenyl)methyl)-4-ethyl(2,2,2-d3)piperazine]	81.5 ± 0.5						
Clc1ccc([C@H](c2ccccc2)N2CCN(C3CCCCC3)CC2)cc1 [Cyclohexyl (S), (S)-1-((4-Chlorophenyl)(phenyl)methyl)-4-cyclohexylpiperazine]	12.3 ± 0.3	177 ± 37	69				
NCCOCCN1CCN(C(c2ccccc2)c2ccc(Cl)cc2)CC1 (racemic) [CH2CH2OCH2CH2NH2 (R,S), 2-(2-(4-((4-Chlorophenyl)(phenyl)methyl)piperazin-1-yl)ethoxy)ethanamine]	8.18	4.8 ± 1.1	1704				
CN1CCC(N(c2ccccc2)c2ccccc2)CC1	56.8 ± 8.2				2720 ± 1130	21	
[2H]C([2H])([2H])N1CCN([C@@H](c2ccccc2)c2ccc(Cl)cc2)CC1 [CD3 (S), (S)-1-((4-Chlorophenyl)(phenyl)methyl)-4-methyl(d3)piperazine]	77.9 ± 3.1	63 ± 25					
